In patent US12509446B2, “FYN and VEGFR2 kinase inhibitors” (ROTTAPHARM BIOTECH S.R.L., priority 2019, dated 2025):

Legend:
MMP13 = assay: Gene expression in rat articular chondrocytes under IL-1β stimulation, MMP13; format: cell-based; details: for MMP13 gene expression, percentage of inhibitory effect at the highest non toxic concentration: 10 μM, 24 h; for IC50: Rattus norvegicus, Chondrocyte, 24 h incubation
Procedure: (§1) For gene expression analysis, 10 days after plating, the medium was changed and substituted with DMEM GlutaMAX I 0.4% to synchronize the cells. The cells were then co-treated in DMEM GlutaMAX I 0.4% with different concentrations of the test compounds and […] at a final concentration of 2 ng/ml for 6 h and 24 h. The test compound concentrations used have been chosen on the basis of the toxicity data.
(§2) At the end of the incubation, the supernatant was discarded, the cell were washed with cold PBS1X and scraped with 200 μl of RNA lysis buffer 1X (Nucleic Acid Purification Lysis Solution, Applied Biosystems).
(§3) Total RNA was purified using ABI Prism™ 6100 Nucleic Acid PrepStation (Applied Biosystems) following manufacturer's instructions.
(§4) Total RNA was retrotranscribed using the High-Capacity cDNA Archive Kit (Applied Biosystems-Thermo Fisher Scientific) following manufacturer's instructions.
(§5) The specific probes and primers for RealTime PCR were from Applied Biosystems (Thermo Fisher Scientific) as Assays-on-Demand™, while the probe and primers for the endogenous control 18S was a PDAR (Pre-Developed TaqMan® Assay Reagents—Applied Biosystems-Thermo Fisher Scientific).
(§6) The assays were designed to amplify target cDNA without amplifying genomic DNA.
(§7) Gene expression analysis for IL-1β, IL-6 and ADAMTS-5 were performed at 6 h incubation, while the gene expression analysis for MMP3, MMP13 and COX2 were performed at 24 h incubation.
(§8) For each compound the maximal concentration tested was dependent on the toxicity results obtained on primary rat chondrocytes.
(§9) The data analysis, with the normalisation on the amplified values for the 18S was done following the specific instruction of Applied Biosystems for the relative quantification of gene expression.

VEGFR2 = VEGFR2 (Homo sapiens (Human), UniProt P35968); assay: In vitro VEGFR2 kinase activity assay (Eurofins Cerep); format: biochemical; details: read-out: VEGFR2 KINASE INHIBITION IC50
VEGFR2, sequence (P35968 20-1356): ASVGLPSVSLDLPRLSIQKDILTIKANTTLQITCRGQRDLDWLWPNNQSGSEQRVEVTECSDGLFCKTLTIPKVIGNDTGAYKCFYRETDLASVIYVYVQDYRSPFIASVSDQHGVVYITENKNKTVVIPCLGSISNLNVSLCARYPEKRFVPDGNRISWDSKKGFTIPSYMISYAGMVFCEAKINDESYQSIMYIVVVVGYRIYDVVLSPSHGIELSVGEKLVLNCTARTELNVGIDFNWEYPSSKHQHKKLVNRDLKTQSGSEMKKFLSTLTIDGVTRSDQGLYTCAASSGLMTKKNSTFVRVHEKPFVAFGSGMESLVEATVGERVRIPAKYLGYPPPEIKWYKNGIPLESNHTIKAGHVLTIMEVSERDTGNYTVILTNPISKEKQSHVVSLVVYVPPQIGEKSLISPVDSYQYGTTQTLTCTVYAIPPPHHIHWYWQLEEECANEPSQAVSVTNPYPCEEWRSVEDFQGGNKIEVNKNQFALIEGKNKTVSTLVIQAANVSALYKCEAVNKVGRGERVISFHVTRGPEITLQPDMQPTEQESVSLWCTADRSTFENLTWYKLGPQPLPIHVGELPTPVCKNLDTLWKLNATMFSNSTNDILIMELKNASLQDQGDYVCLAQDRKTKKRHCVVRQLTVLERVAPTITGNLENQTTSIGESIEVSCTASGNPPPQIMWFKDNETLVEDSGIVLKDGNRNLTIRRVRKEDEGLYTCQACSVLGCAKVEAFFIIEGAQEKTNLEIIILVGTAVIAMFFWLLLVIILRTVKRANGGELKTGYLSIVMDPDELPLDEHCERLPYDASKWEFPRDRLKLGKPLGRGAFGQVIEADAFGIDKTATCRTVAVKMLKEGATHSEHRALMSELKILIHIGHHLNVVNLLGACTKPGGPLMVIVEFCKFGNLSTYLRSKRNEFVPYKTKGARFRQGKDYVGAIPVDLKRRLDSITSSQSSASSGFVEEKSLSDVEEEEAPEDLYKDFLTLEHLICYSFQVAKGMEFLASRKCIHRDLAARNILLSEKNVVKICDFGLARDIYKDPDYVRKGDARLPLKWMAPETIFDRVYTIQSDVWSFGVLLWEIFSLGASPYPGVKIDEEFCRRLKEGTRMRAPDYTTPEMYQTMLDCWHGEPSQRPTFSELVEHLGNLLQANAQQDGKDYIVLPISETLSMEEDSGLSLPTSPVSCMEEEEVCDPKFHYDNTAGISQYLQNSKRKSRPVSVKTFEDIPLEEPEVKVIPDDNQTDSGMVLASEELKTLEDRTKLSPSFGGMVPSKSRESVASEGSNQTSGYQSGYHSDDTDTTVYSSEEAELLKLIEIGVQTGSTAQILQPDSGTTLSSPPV
How it was run: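 Contract biochemical kinase assay on human VEGFR2 with inhibitors at 10^−8 to 10^−5 M final (some re-tested from 10^−9 M). Activity expressed as percent of no-compound control; IC50 by non-linear regression of mean replicate inhibition curves.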

IL-6 = assay: Gene expression in rat articular chondrocytes under IL-1β stimulation, IL-6; format: cell-based; details: for IL-6 gene expression, percentage of inhibitory effect at the highest non toxic concentration: 6 h
Procedure: as §1, §2, §3, §4, §5, §6, §7, §8, §9

[1] = system: rat primary articular chondrocytes; assay: Toxicity analysis (MTT) in rat primary chondrocytes; details: for First toxic concentration at 24 h: rat primary chondrocytes
Procedure: Purified chondrocytes were resuspended in DMEM glutaMAX 10% and plated in a 96X well plate for toxicity analysis and in a 6X well plate for gene expression analysis.
For toxicity analysis cells were then treated with the different compounds for 24 and 48 h. At the end of the incubation time, the medium was removed and was substituted with a mixture 10:1 of DMEM glutaMAX 10%—MTT (2 mg/ml) for 1 h at 37° C. in the cell incubator. After this incubation, the precipitated salt was dissolved with 100 μl of DMSO and the plate was read at 540 nm. The toxicity analysis were performed to decide the maximal non toxic concentration of each compound used in the gene expression assay.

[2] = system: bovine nasal septum cartilage; assay: Inhibition of cartilage degradation (GAG release) induced by IL-1α in a bovine in vitro model; format: cell-based; design: key to Bovine cartilage degradation induced by IL-1α, no effect: ne: no effect; details: for IC50 / inhibition at 3 µM / inhibition at 10 µM: Bos taurus; for IC50: head says nM, cells print μM, 48 h stimulation, read-out: Inhibitory effect on bovine cartilage degradation induced by IL-1α, IC50; for inhibition at 3 µM / inhibition at 10 µM: read-out: Bovine cartilage degradation induced by IL-1α, % inhibitory effect at max concentration
Procedure: Nasal septum cartilage was collected from an eight months-old male bovine in a local slaughterhouse.
Tissue was sprayed with ethanol 70% and immediately put in sterile PBS with Antibiotic-Antimycotic stabilized solution (PBS-AASS). It was cut in order to obtain small punches (diameter 2 mm, 1 mm-thick). washed with sterile PBS-AASS, the slices were transferred in a 96X well plate (one piece per well) in DMEM 10%+AASS. 48 h later the cartilage was stimulated in white DMEM+0.1% BSA+AASS with IL-1α […] in the absence or presence of the studied compounds.
The compounds concentration used in this analysis was chosen depending on the toxicity results obtained in rat primary chondrocytes at 48 h of incubation.
After 48 h stimulation, the culture medium was collected and stored at −80° C. The cartilage punches were digested with papain at 65° C. for 2 h in phosphate buffer (0.05M pH 6.5 with 2 mM N-acetil-L-cisteine and 2 mM EDTA).
The glycosaminoglycan (GAG) determination was done by a colorimetric assay with 1,9 dimethyl methylene blue (DMB).
Digested cartilage samples were diluted in PBS-BSA 1%. To 100 μl of diluted samples or standard we added 100 μl DMB 2X. After 5-20 min incubation the samples were read at 590 nm (Titertek Multiscan Plus).
The cartilage degradation induced by IL-1α was expressed as: GAG (medium)/total GAG (medium+cartilage)×100

COX2 = assay: Gene expression in rat articular chondrocytes under IL-1β stimulation, COX2; format: cell-based; details: for COX2 gene expression, percentage of inhibitory effect at the highest non toxic concentration: 10 μM, 24 h
ADAMTS-5 = assay: Gene expression in rat articular chondrocytes under IL-1β stimulation, ADAMTS-5; format: cell-based; details: for IC50: Rattus norvegicus, Chondrocyte, 6 h incubation; for ADAMTS-5 gene expression, percentage of inhibitory effect at the highest non toxic concentration: 10 μM, 6 h
Procedure: as §1, §2, §3, §4, §5, §6, §7, §8, §9

NF-kB = assay: Gene reporter (GR) assay, NF-kB activation after TNFα in JB6 Cl 41-5a (P+) cells; format: cell-based, murine; details: Mus musculus, JB6 Cl 41-5a, TNFα 2 ng/ml, non toxic concentrations; read-out: Gene reporter (GR) inhibition IC50
How it was run: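 TNFα (2 ng/ml, 4 h) stimulation followed 1 h compound pre-treatment in NF-kB-luciferase-transfected mouse JB6 (P+) epithelial cells. Reporter luminescence and cell viability were read together, each condition in quadruplicate.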

MMP3 = assay: Gene expression in rat articular chondrocytes under IL-1β stimulation, MMP3; format: cell-based; design: key to MMP3 gene expression, no effect: ne: no effect; details: for MMP3 gene expression, percentage of inhibitory effect at the highest non toxic concentration: 10 μM; for MMP3 gene expression, percentage of inhibitory effect at the highest non toxic concentration / MMP3 gene expression, no effect: 24 h; for IC50: Rattus norvegicus, Chondrocyte, 24 h incubation
Procedure: as §1, §2, §3, §4, §5, §6, §7, §8, §9

Fyn = Fyn (Homo sapiens (Human), UniProt P06241); assay: Z′-LYTE in vitro Fyn kinase activity assay; format: biochemical; details: ATP 50 μM; read-out: FYN KINASE INHIBITION IC50
Fyn, sequence (P06241 whole entry): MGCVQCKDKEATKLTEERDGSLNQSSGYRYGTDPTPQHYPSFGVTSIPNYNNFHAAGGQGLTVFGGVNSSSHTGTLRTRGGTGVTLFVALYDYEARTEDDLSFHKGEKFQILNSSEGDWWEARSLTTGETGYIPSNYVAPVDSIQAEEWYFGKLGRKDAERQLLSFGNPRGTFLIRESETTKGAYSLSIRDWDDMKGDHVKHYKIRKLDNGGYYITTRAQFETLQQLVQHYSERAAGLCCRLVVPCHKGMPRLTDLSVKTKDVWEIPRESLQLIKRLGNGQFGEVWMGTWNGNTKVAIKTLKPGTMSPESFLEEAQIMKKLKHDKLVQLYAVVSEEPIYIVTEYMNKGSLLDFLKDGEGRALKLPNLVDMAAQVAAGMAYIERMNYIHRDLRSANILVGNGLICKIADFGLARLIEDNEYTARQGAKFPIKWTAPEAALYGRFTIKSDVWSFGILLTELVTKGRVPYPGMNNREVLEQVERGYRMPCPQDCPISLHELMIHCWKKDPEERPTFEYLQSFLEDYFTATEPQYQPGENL
How it was run: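 Z′-LYTE FRET format with full-length active Fyn in 50 mM Hepes pH 7.5, 10 mM MgCl2, 1 mM EGTA, 0.01% Brij-35, 1% DMSO final; 60 minutes at 25° C. Percent phosphorylation from 0% and 100% phosphorylation controls; IC50 by non-linear curve fitting of percent inhibition.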

IL-1β = assay: Gene expression in rat articular chondrocytes under IL-1β stimulation, IL-1β; format: cell-based; details: for IL-1β gene expression, percentage of inhibitory effect at the highest non toxic concentration: 10 μM, 6 h; for IC50: Rattus norvegicus, Chondrocyte, 6 h incubation
Procedure: as §1, §2, §3, §4, §5, §6, §7, §8, §9

Compound	MMP13 gene expression, percentage of inhibitory effect at the highest non toxic concentration (MMP13)	IC50 (VEGFR2)	IL-6 gene expression, percentage of inhibitory effect at the highest non toxic concentration (IL-6; 10 μM)	First toxic concentration at 48 h in rat primary chondrocytes [1]	First toxic concentration at 24 h [1]	COX2 gene expression, percentage of inhibitory effect at the highest non toxic concentration (COX2)	IC50 (ADAMTS-5)	IC50 (NF-kB)	MMP3 gene expression, percentage of inhibitory effect at the highest non toxic concentration (MMP3)	IC50 (Fyn)	IL-1β gene expression, percentage of inhibitory effect at the highest non toxic concentration (IL-1β)	ADAMTS-5 gene expression, percentage of inhibitory effect at the highest non toxic concentration (ADAMTS-5)	IC50 (IL-1β)	also measured
Cc1ccc(NC(=O)c2cccc(S(=O)(=O)C(C)C)c2)cc1CCc1cc(Nc2ncccc2C)[nH]n1 [Compound 35, 3-(isopropylsulfonyl)-N-(4-methyl-3-(2-(5-((3-methylpyridin-2-yl)amino)-1H-pyrazol-3-yl)ethyl)phenyl) benzamide]	10 μM 88%	< 10 nM	10 μM 90%	>10 µM	>10 µM	10 μM 90%	3000 nM	1310 nM	10 μM 44%	88 nM	10 μM 74%			IC50 [2]: 1500 nM
Cc1ccc(NC(=O)c2ccnc(C(C)(C)C#N)c2)cc1CCc1cc(Nc2cnccn2)[nH]n1 [Compound 2, 2-(2-cyanopropan-2-yl)-N-(4-methyl-3-(2-(5-(pyrazin-2-ylamino)-1H-pyrazol-3-yl)ethyl)phenyl)isonicotinamide]	10 μM 99%	< 10 nM	10 μM 100%	>10 µM	>10 µM	10 μM 100%		312 nM	10 μM 92%	10 nM	10 μM 100%	10 μM 94%		IC50 [2]: 800 nM
Cc1ccc(NC(=O)c2cccc(C(F)(F)F)c2)cc1CCc1cc(NC(=O)c2ccc(F)cc2)[nH]n1 [Compound 19, N-(3-(2-(3-(4-fluorobenzamido)-1H-pyrazol-5-yl)ethyl)-4-methylphenyl)-3-(trifluoromethyl)benzamide]		110 nM		10 µM	10 µM		100 nM	883 nM		69 nM			100 nM	IC50 (MMP13): 500 nM; IL-6 gene expression, percentage of inhibitory effect at the highest non toxic concentration (IL-6; 3 μM): 3 μM 99%; inhibition at 3 µM [2]: 83%; IC50 (COX2; Rattus norvegicus, Chondrocyte, 24 h incubation): 400 nM; IC50 (MMP3): 600 nM
CS(=O)(=O)c1cccc(C(=O)Nc2ccc(F)c(CCc3cc(Nc4cnccn4)[nH]n3)c2)c1 [Compound 12, N-(4-fluoro-3-(2-(5-(pyrazin-2-ylamino)-1H-pyrazol-3-yl)ethyl)phenyl)-3-(methylsulfonyl)benzamide]	10 μM 34%	< 10 nM		10 µM	>10 µM	10 μM 63%		4510 nM		24 nM		10 μM 57%	3900 nM	IC50 (IL-6; Rattus norvegicus, Chondrocyte, 6 h incubation): 2600 nM; Bovine cartilage degradation induced by IL-1α, no effect [2]: ne; MMP3 gene expression, no effect (MMP3): ne
Cc1ccc(NC(=O)c2ccnc(C(C)(C)O)c2)cc1CCc1cc(Nc2cnccn2)[nH]n1 [Compound 5, 2-(2-hydroxypropan-2-yl)-N-(4-methyl-3-(2-(5-(pyrazin-2-ylamino)-1H-pyrazol-3-yl)ethyl)phenyl)isonicotinamide]	10 μM 32%	< 10 nM	10 μM 89%	10 µM	>10 µM	10 μM 43%	5500 nM	3260 nM		6 nM	10 μM 84%			inhibition at 3 µM [2]: 79%; MMP3 gene expression, no effect (MMP3): ne
CC(C)(C#N)c1cc(C(=O)Nc2ccc(F)c(CCc3cc(Nc4cnccn4)[nH]n3)c2)ccn1 [Compound 11, 2-(2-cyanopropan-2-yl)-N-(4-fluoro-3-(2-(5-(pyrazin-2-ylamino)-1H-pyrazol-3-yl)ethyl)phenyl)isonicotinamide]		< 10 nM	10 μM 100%	>10 µM	>10 µM	10 μM 100%		785 nM		21 nM	10 μM 100%	10 μM 100%		IC50 (MMP13): 2400 nM; inhibition at 10 µM [2]: 89%; IC50 (MMP3): 2200 nM
Cc1nc(C#N)cc(Nc2cc(CCc3cc(NC(=O)c4cccc(S(=O)(=O)N(C)C)c4)ccc3C)n[nH]2)n1 [Compound 37, N-(3-(2-(5-((6-cyano-2-methylpyrimidin-4-yl)amino)-1H-pyrazol-3-yl)ethyl)-4-methylphenyl)-3-(N,N-dimethylsulfamoyl)benzamide]	10 μM 95%	35 nM	10 μM 97%	>10 µM	>10 µM	10 μM 97%	4000 nM	2260 nM	10 μM 59%	24 nM			1600 nM	inhibition at 10 µM [2]: 99%
